Tested on: CYP2C9
Test: CYP2C9 activity and induction in cells cultured in Alvatex (ReInnervate) scaffolds, OH-Diclophenac by HPLC
Format: cell-based, human
Details: cells cultured on 3D surfaces (FIG. 8)
Description: Cell line SA461 (Cellartis AB) was cultured and differentiated according to conditions in Examples 1 and 2, experiment 083 and then according to the scheme below: Cells were induced with 1 mM Phenobarbital, 10 μM dexamethasone and 5 μM β-naphthoflavone. To each well, either induction or control medium was added (400 ul/well 2D cultures, 2000 ul/well in […] scaffolds) and the plate was incubated 24 h. After 24 hours of induction, all wells were washed 2× in DPBS+/+ and activity assay medium was added, 200 ul/well in 2D controls and 1000 ul/well in ReInnervate scaffolds. […] After 16 hours incubation at 37 C, the medium was transferred to eppendorf tubes and spun down for 20 min at 4° C. and 10000 g. […] Figures show CYP response in hESC-derived hepatocytes cultured either on […]) or 2D control, cells induced with Diclofenac to mimic hepatic liver activity. Activity assay performed at day 23 and day 29 as indicated.

O=C(O)Cc1ccccc1Nc1c(Cl)cccc1Cl [diclophenac]
CYP2C9 activity when cells were treated: elevated
